Experiments:
[1] = biological target: T1, [3H]-NMS-occupied muscarinic hM5 subtype (Homo sapiens, UniProt P08912); test: One point kinetic (off-rate) assay of [3H]-NMS dissociation; assay type: binding; settings: read-out: log Kocc hM5 (converted)
T1 construct: expressed in transfected cells; host or cells: CHO cells, stably transfected; membrane fractions
T1 sequence (P08912 1-532): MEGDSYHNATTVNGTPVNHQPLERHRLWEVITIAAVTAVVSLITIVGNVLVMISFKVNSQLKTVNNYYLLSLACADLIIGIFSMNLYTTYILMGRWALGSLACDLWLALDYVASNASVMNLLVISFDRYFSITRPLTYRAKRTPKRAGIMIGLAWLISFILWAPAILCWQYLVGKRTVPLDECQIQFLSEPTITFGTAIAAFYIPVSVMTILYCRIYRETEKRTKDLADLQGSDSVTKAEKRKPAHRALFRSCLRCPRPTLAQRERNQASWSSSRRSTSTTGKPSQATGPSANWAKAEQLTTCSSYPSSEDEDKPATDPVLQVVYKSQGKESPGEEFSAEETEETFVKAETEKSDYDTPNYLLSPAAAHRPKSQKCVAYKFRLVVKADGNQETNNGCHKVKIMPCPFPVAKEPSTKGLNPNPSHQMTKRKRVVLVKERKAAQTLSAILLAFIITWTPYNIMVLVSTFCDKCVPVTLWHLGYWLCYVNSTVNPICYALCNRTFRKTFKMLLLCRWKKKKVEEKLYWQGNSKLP
Protocol: (§1) All tested compounds were purchased from Merck KGaA (Darmstadt, Germany). The radioligand binding experiments were performed with membranes from Chinese Hamster Ovary (CHO) cells stably transfected with the five cloned human muscarinic receptor subtypes (hM1-5). Membrane fractions were prepared according to the protocol, which have been previously described; membranes were stored at −80 °C until use. Nonspecific binding was defined by the radioactivity bound in the presence of 10 µM atropine.
(§2) Off-rate assays were performed as described elsewhere to estimate the affinity of the ligands for the [^3H]-NMS-occupied receptor (log Kocc). Briefly, a high concentration of membranes (about 0.1 mg/mL) was incubated with a high concentration of [^3H]-NMS (2 nM) for 60 min at room temperature (mix membrane). Next, 100 µL aliquots were distributed into polypropylene tubes that were empty or in a final volume of 1 mL binding buffer with 1 µM atropine alone and in the presence of a range of concentrations of tested compound (1 nM–0.1 mM).
(§3) The effect on the radioligand dissociation of each tested ligand was determined at 0 min and at one time point, which was chosen to be ca 2.5 dissociation half-lives of [^3H]-NMS alone from each subtype receptors. Later (80 min for hM1, 20 min for hM2 and 70 min for hM5), the samples were filtered and counted as previously reported. Non specific binding was measured as previously reported.
Data from one-point kinetic experiments were analyzed in order to obtain estimates of the affinity of an allosteric ligand for the [^3H]-NMS occupied receptor (log Kocc) in a single step, using an equation introduced in GraphPad Prism 5.02 [33, 34].
(§4) All the results are expressed as means ± SEM obtained from 3-4 independent experiments each one performed in duplicate.

hM1 muscarinic receptor = biological target: T2, hM1 muscarinic receptor (Homo sapiens, UniProt P11229); test: Equilibrium inhibition binding with [3H]-NMS, CHO cell membranes; settings: [3H]-NMS 0.2 nM, mean ± SEM of 3-4 experiments, read-out: pKi hM1 (converted)
T2 construct: expressed in transfected cells; host or cells: CHO cells, stably transfected; membrane fractions
T2 sequence (P11229 1-460): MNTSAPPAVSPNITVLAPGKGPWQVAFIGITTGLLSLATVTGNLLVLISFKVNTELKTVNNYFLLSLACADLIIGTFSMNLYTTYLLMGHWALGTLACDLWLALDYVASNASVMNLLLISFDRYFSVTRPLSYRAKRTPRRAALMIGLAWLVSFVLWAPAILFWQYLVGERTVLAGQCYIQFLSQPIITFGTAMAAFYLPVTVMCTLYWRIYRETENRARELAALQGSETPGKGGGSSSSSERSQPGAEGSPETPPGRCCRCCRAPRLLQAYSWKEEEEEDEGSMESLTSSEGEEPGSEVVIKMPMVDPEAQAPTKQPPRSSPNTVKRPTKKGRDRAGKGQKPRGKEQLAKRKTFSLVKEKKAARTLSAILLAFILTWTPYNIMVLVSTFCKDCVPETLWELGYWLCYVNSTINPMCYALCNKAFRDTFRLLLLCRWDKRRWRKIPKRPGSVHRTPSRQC
Protocol: as §1
(§5) Aliquots of membranes (25–70 µg/mL) were added and incubated for 2 h at room temperature, filtered through UniFilter GF/B plates (PerkinElmer Life and Analytical Science, Monza, Italy) using a FilterMate cell harvester (PerkinElmer Life and Analytical Science, Monza, Italy). The filters were washed several times with ice-cold MilliQ water. Then, the plates were counted in a β-counter (TopCount NXT microplate scintillation counter, PerkinElmer Life and Analytical Science, Monza, Italy).
(§6) Data points from radioligand inhibition binding curve were fitted to models using nonlinear regression equation to determine inhibitor potency (IC50) estimates, which were then converted to Ki values as appropriate.
as §4

hM4 muscarinic receptor = biological target: T3, hM4 muscarinic receptor (Homo sapiens, UniProt P08173); test: as above; settings: [3H]-NMS 0.2 nM, CHO membranes, mean ± SEM of 3-4 experiments; read-out: pKi hM4 (converted)
T3 construct: expressed in transfected cells; host or cells: CHO cells, stably transfected; membrane fractions
T3 sequence (P08173 1-479): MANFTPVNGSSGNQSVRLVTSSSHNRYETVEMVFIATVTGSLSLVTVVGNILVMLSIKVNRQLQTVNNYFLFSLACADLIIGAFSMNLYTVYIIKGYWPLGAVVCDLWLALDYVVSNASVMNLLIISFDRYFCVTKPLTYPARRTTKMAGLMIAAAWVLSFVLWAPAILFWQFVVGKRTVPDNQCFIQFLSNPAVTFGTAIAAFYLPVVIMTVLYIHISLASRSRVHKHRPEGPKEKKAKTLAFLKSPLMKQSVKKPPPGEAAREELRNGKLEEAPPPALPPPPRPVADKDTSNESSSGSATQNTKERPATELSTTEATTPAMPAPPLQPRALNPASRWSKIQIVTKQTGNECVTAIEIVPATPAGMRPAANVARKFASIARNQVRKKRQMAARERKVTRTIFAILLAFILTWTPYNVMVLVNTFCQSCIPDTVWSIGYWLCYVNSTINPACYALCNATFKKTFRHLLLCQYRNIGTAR
Protocol: as §1, §5, §6, §4

hM3 muscarinic receptor = biological target: T4, hM3 muscarinic receptor (Homo sapiens, UniProt P20309); test: as above; settings: [3H]-NMS 0.2 nM, mean ± SEM of 3-4 experiments, read-out: pKi hM3 (converted)
T4 construct: expressed in transfected cells; host or cells: CHO cells, stably transfected; membrane fractions
T4 sequence (P20309 whole entry): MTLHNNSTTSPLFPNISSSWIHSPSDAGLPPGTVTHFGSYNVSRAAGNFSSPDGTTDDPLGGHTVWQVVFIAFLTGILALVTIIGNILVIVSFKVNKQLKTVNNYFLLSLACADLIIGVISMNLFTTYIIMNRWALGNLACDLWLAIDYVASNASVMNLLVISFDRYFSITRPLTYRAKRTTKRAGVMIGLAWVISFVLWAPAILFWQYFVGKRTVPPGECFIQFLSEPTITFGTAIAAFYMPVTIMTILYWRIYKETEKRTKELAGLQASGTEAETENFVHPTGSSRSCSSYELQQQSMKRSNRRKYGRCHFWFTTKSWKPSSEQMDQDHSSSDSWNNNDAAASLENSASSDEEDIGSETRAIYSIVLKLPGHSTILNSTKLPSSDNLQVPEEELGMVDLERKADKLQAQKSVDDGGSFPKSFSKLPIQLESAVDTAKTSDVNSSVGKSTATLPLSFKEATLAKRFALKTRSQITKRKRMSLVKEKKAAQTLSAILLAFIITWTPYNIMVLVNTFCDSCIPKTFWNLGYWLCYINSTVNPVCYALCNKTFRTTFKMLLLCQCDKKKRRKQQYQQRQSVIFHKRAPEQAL
Protocol: as §1, §5, §6, §4

hM5 muscarinic receptor = biological target: T5, hM5 muscarinic receptor (Homo sapiens, UniProt P08912); test: as above; settings: [3H]-NMS 0.2 nM, CHO membranes, mean ± SEM of 3-4 experiments; read-out: pKi hM5 (converted)
T5 construct: expressed in transfected cells; host or cells: CHO cells, stably transfected; membrane fractions
T5 sequence (P08912 1-532): T1 sequence (P08912 1-532)
Protocol: as §1, §5, §6, §4

hM2 muscarinic receptor = biological target: T6, hM2 muscarinic receptor (Homo sapiens, UniProt P08172); test: as above; settings: [3H]-NMS 0.2 nM, mean ± SEM of 3-4 experiments, read-out: pKi hM2 (converted)
T6 construct: expressed in transfected cells; host or cells: CHO cells, stably transfected; membrane fractions
T6 sequence (P08172 1-466): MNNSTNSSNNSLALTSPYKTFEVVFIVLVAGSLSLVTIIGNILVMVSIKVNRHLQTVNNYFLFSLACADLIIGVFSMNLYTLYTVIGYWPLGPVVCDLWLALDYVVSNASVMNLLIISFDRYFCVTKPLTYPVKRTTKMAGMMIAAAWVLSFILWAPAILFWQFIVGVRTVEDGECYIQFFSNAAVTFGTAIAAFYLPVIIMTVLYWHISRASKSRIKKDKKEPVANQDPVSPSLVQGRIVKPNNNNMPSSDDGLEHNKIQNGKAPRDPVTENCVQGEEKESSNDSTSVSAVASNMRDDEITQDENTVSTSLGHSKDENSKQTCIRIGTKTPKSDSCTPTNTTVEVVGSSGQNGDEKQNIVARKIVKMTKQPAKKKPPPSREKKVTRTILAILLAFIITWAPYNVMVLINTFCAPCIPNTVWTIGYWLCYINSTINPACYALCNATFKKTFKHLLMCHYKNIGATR
Protocol: as §1, §5, §6, §4

[2] = biological target: T7, [3H]-NMS-occupied muscarinic hM2 subtype (Homo sapiens, UniProt P08172); test: One point kinetic (off-rate) assay of [3H]-NMS dissociation; assay type: binding
T7 construct: expressed in transfected cells; host or cells: CHO cells, stably transfected; membrane fractions
T7 sequence (P08172 1-466): T6 sequence (P08172 1-466)
Protocol: as §1, §2, §3, §4

[3] = biological target: T8, [3H]-NMS-occupied muscarinic hM1 subtype (Homo sapiens, UniProt P11229); test: biochemical
T8 sequence (P11229 1-460): T2 sequence (P11229 1-460)
Protocol: as §1, §2, §3, §4

[4] = biological target: five human muscarinic receptors subtypes (hM1–hM5); test: Equilibrium binding, summary statements over the five subtypes
Protocol: as §1, §5, §6, §4

Structure (SMILES)	Kd [1] [nM]	Ki (hM1 muscarinic receptor) [nM]	Ki (hM4 muscarinic receptor) [nM]	Ki (hM3 muscarinic receptor) [nM]	Ki (hM5 muscarinic receptor) [nM]	Ki (hM2 muscarinic receptor) [nM]	selectivity ratio hM2/hM1 ([2]; from log Kocc values)	selectivity ratio hM2/hM5 ([2]; from log Kocc values)	Kd ([2]; read-out: Log Kocc hM2 (converted)) [nM]	Kd [3] [nM]	pKi values (muscarinic subtypes overall) [4]
C[N+](C)(CCCCCC[N+](C)(C)CCCN1C(=O)c2ccccc2C1=O)CCCN1C(=O)c2ccccc2C1=O [W84]	18200	891	5010	5500	9120	6170	4.6	52.5	288	1620	–
[H]/N=C(\N/C(=N/[H])NCCCCCCNC(=N)NC(=N)Nc1ccc(Cl)cc1)Nc1ccc(Cl)cc1 [chlorhexidine]	186000	501	1620	2140	2240	–	–	–	–	81300	around 6
N=C(N)c1ccc(OCCCCCOc2ccc(C(=N)N)cc2)cc1 [pentamidine]	182000	–	1320	–	1740	–	–	–	–	–	–
